Source: PMC10571957, “αV-Integrin-Dependent Inhibition of Glioblastoma Cell Migration, Invasion and Vasculogenic Mimicry by the uPAcyclin Decapeptide” (Cancers, 2023)
Where “and” joins values, the source holds several entries; their conditions need not be identical. Equal entries are not always repeated.

Tests used:
U138-MG cells = test: Boyden chamber migration (chemotaxis), U138-MG; assay type: cell-based, human; details: for migration, % of basal, average 2 expts: mean of 2 expts; for migration, % of basal, average expt 1: mean of expt 1; for migration, % of basal, average expt 2: mean of expt 2; for migration, % of basal, T-test list: single replicates of both expts
Procedure: The migration and invasion assays were performed using Boyden chambers and 8 µm pore size PVP-free filters coated with 50 µg/mL of collagen type VI (Sigma), as previously described. For the invasion assays, collagen-coated filters were further coated with 50 µg/mL Matrigel^TM (Sigma). Briefly, 11 × 10^4 U87-MG, 4 × 10^4 U251-MG, or 4 × 10^4 U138-MG/sample were pre-treated for 40 min at 37 °C with the indicated effectors. Then, the cells were allowed to migrate for 3 h or to invade for 5 h at 37 °C toward 5% FBS in DMEM/0.1% BSA. At the end of both assays, the cells on the lower filter surface were fixed, stained with haematoxylin, and counted under an optical microscope (Zeiss Axiophot, Carl Zeiss, Milan, Italy) at 20× magnification. The migration and invasion experiments were conducted in triplicate for U87-MG and in duplicate for U251-MG and U138-MG. The migrated or invaded cells were reported as percentage of basal migration or invasion in the presence of DMEM/0.1% BSA, taken as 100%, and analyzed as reported in Section 2.11.
Figure 3 Inhibition of U87-MG, U251-MG, and U138-MG GBM cellular migration by uPAcyclin. Quantitative analysis of U87-MG (A), U251-MG (B), and U138-MG (C) directional migration. A total of 11 × 10^4 U87-MG/sample or 4 × 10^4 U251-MG or U138-MG/sample were pre-treated for 40 min at 37 °C with uPAcyclin or S-peptide at the indicated concentrations, anti-αV polyclonal (anti-αV Pclonal) or monoclonal (anti-αV MoAb) antibody, or anti-GAPDH, and anti-α2 monoclonal antibody (anti-α2 MoAb), and then assayed in Boyden chambers at 37 °C, either for basal (BSA) or directional 5% FBS-dependent migration for 3 h at 37 °C. At the end of incubation, the filters were processed as described in Methods. Basal migration was taken as 100% and all values were calculated relative to that (* p-value < 0.05; ** p-value < 0.005; *** p-value < 0.001).

C6 cells = test: Vasculogenic mimicry (tube formation on Geltrex), C6; assay type: cell-based, rat; details: C6, 16 h
Procedure: The tube formation assay was performed in 96-well plates pre-coated with 50 µL/well of Geltrex^TM (Thermofisher, Scientific, Waltham, MA, USA), and polymerized for 30 min at 37 °C. Briefly, 3 × 10^4 U87-MG, 1.5 × 10^4 U251, and 1 × 10^4 C6 cells/100µL/well were plated onto Geltrex^TM and monitored at 37 °C for the indicated times. The specific effectors were included at time 0. The formation of vascular-like structures by Geltrex^TM-plated U87-MG and U251-MG cells was monitored for 24 h, whereas C6 cells were tested for 16 h. The evaluation of the branching point number, defined as the intersection of at least 3 tubes [24], was performed using the Inverted Microscope DMI Leica 6000 for the U87-MG and U251-MG cells and the Inverted Microscope Axiovert 25 for the C6 cells. At the indicated times, the number of “branching points” was assessed in 4/5 random fields using the ImageJ 1.52a Software.
Figure 7 Vascular mimicry formation by C6 rat cells and inhibition by uPAcyclin. […] (B) After 16 h, the number of branching points was evaluated as described in the legend to Figure 5 and reported in the relative histogram (*** p-value < 0.001).

U87-MG cells = test: Cell viability/proliferation (Trypan blue, MTT), U87-MG; assay type: cell-based, human; details: 1 nM or 100 nM, 72–96 h
Procedure: (§1) Cell viability was tested in DMEM/10% FBS, in the presence of 1 nM or 100 nM uPAcyclin, either by Trypan blue exclusion or by thiazolyl blue tetrazolium bromide (MTT) assays, as specified in the figure legends. For the Trypan blue assay, 4 × 10^4 U87-MG, U251-MG, U138-MG, and C6 cells/sample were grown in 12-well plates, and followed for 24, 48 and 72 h. As a negative control, the cells were grown in a serum-free medium. Then, the cells were detached, stained with a 0.2% (w/v) Trypan blue solution, counted using a Burker chamber (T0 = 100%), and reported as number of viable cells/total.
For the MTT assay, 5 × 10^3 U87-MG and C6 cells/well were grown in 96-well plates for 24 h and tested as previously described. Briefly, MTT (Invitrogen-Life Technologies, Eugene, OR, USA) 5 mg/mL in a PBS solution was added to wells at a 10% final concentration, and incubated for 3 h at 37 °C, followed by the addition of stop solution (100 µL of DMSO/well) for 1 h at room temperature. Then, the optical densities were measured at 495 nm using the Microplate Reader (Synergy HT, Bio-Tek, Winoosky, VT, USA). The cell viability rate was calculated as a percentage by reporting the mean absorbance of treated groups to control groups, as follows: Cell viability rate (%) = (Atreated group/Acontrol group) × 100.

U251-MG cells = test: Cell viability/proliferation (Trypan blue), U251-MG; assay type: cell-based, human; details: 1 nM or 100 nM, 72–96 h
Procedure: as §1

[1] = tested on: cancer-associated fibroblasts (CAFs) from breast cancer patients; details: ref [30]; cited from earlier work
Source text: Thus, in the present work, we investigated the effects of the anti-migratory uPAcyclin decapeptide, binding to the αV integrin subunit. This cyclic decapeptide is derived from a non-catalytic region of the human urokinase (uPA) plasminogen activator. The growth factor domain (GFD, residues 1–49) and the connecting peptide region (CP, residues 132–158) confer to the full uPA a clearcut motogen activity. While the GFD binds to the urokinase receptor (uPAR), the CP region binds to the αV integrin subunit.

[2] = 1 nM, 5% FBS, 3 h, expt 1, duplicates
[3] = 1 nM, 5% FBS, 3 h, expt 2, duplicates
[4] = 100 nM, 5% FBS, 3 h, expt 1, duplicates
[5] = 100 nM, 5% FBS, 3 h, expt 2, duplicates

Ac-K^1P[ESPPEELK^10]-NH2 (sidechain bridge or staple) [uPAcyclin]
inhibition of migration (U138-MG cells; 1 nM, U138-MG, 5% FBS, 3 h): 70–80%
migrated cells n°/field (U138-MG cells; [2]): 8 cells n°/field and 7 cells n°/field
migration, % of basal (U138-MG cells; [2]): 114% and 100%
migrated cells n°/field (U138-MG cells; [3]): 8 cells n°/field and 10 cells n°/field
migration, % of basal (U138-MG cells; [3]): 100% and 125%
migration, % of basal, average 2 expts (U138-MG cells; 1 nM, 5% FBS, 3 h): 110%
migration, % of basal, average expt 1 (U138-MG cells; 1 nM, 5% FBS, 3 h): 107%
migration, % of basal, average expt 2 (U138-MG cells; 1 nM, 5% FBS, 3 h): 113%
migration, % of basal, T-test list (U138-MG cells; 1 nM): 114 and 100 and 125
migration, in words (U138-MG cells; 100 nM, U138-MG, 5% FBS, 3 h): below background levels
migrated cells n°/field (U138-MG cells; [4]): 7 cells n°/field and 5 cells n°/field
migration, % of basal (U138-MG cells; [4]): 100% and 71%
migrated cells n°/field (U138-MG cells; [5]): 6 cells n°/field and 7 cells n°/field
migration, % of basal (U138-MG cells; [5]): 75% and 88%
migration, % of basal, average 2 expts (U138-MG cells; 100 nM, 5% FBS, 3 h): 84%
migration, % of basal, average expt 1 (U138-MG cells; 100 nM, 5% FBS, 3 h): 86%
migration, % of basal, average expt 2 (U138-MG cells; 100 nM, 5% FBS, 3 h): 82%
migration, % of basal, T-test list (U138-MG cells; 100 nM): 100 and 71 and 75 and 88
inhibition of branching point number (C6 cells; 10 pM): 40%
inhibition of branching point number (C6 cells; 100 nM): 60%
proliferation/viability (U87-MG cells): unaffected by uPAcyclin, regardless of the concentration employed
proliferation/viability (U251-MG cells): unaffected by uPAcyclin, regardless of the concentration employed
pro-invasive ability of CAFs [1]: inhibited the pro-invasive ability of cancer-associated fibroblasts
